Experimental data taken from article PMC11555678, “Improved Broad Spectrum Antifungal Drug Synergies with Cryptomycin, a Cdc50-Inspired Antifungal Peptide” (ACS Infectious Diseases, 2024).
Converted amounts (≈) assume the structure as drawn. Read-outs that look alike come from different tables or passages of the source.

Columns and labels:
C. auris B11245 = assay: microbe, parasite or virus in culture; assay type: cell-based, Candida auris; conditions: Candidozyma auris, B11245; compound alone; RPMI1640, 37 °C, 48 h; * = paradoxical growth observed (CAS); read-out: MIC
Outline: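 Two-fold dilution series prepared from DMSO stocks in RPMI1640 were inoculated with 5000 cfu/mL yeast per CLSI M27, then kept at 37 °C for 2 days.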

C. neoformans H99 = conditions: Cn wild-type, previous study; cited from earlier work
Cg FKS1 S629P = assay: Drug synergy (MIC in peptide-supplemented media); assay type: cell-based, Candida glabrata; conditions: for MIC of antifungal in combination with KKOO / MIC of antifungal in combination with KKOO-NH2: RPMI1640, 37 °C, 48 h
Experimental: (§1) All microdilution assays with fungi were carried out in accordance with CLSI protocols from M27 for yeasts and M38 for filamentous fungi, respectively, unless otherwise specified.[64],[65] Briefly, 96-well plates were charged with RPMI1640 media, with operating volume in the first column, 200 μL, and half operating volume, 100 μL, in the remaining wells. Drug stock solution in DMSO was aliquoted into the first well in each row. Half of the volume in the dosed well was serially diluted 2-fold until column 11. Column 11 was used as the negative growth control, and column 12 was used as the positive growth control. ON yeast cultures in YPD were washed twice in DD-H2O, resuspended in PBS, and adjusted to 5000 cfu/mL in RPMI. The 96-well plate was inoculated with 100 μL aliquots of cell suspension per well. Plates were incubated at 37 °C for 2 days.
(§2) To assess drug synergy, the initial media charged to the plate contained the peptide at twice the final operating concentration; the remaining processing steps were identical to the MIC experiment. Upon addition of 100 μL of inoculant, the final operating concentration was achieved. Control MIC plates were prepared alongside drug synergy plates to account for the day-to-day variability in any individual MIC. FIC index is computed using eq 1. All MIC assays and drug synergy assays were completed with two technical replicates per 96-well plate and a minimum of two biological replicates per drug combination. If a difference in MIC between the two technical replicates on the plate were observed, only the higher concentration was reported as the MIC to reduce the possibility of type 1 error (false positive) [drawing 1] 1

Cg FKS2 S663P = assay: Drug synergy (MIC in peptide-supplemented media); assay type: cell-based, Candida glabrata; conditions: for MIC of antifungal in combination with KKOO / MIC of antifungal in combination with KKOO-NH2: RPMI1640, 37 °C, 48 h
Experimental: as §1, §2

Cn apt1Δ = assay: microbe, parasite or virus in culture; assay type: cell-based, Cryptococcus neoformans; conditions: Cryptococcus neoformans, 48 h, 37 °C, 48 h
Cn crm1Δ = assay: microbe, parasite or virus in culture; assay type: cell-based, Cryptococcus neoformans; conditions: Cryptococcus neoformans, 48 h, 37 °C
Cn Crm1-oe = assay: microbe, parasite or virus in culture; assay type: cell-based, Cryptococcus neoformans; conditions: Cryptococcus neoformans, CRM1OE, 48 h, 37 °C
C. glabrata 2001 = assay type: cell-based, Candida glabrata; conditions: for MIC of antifungal in combination with KKOO / MIC of antifungal in combination with KKOO-NH2: RPMI1640, 37 °C, 48 h
Experimental: as §1, §2

Cn MRL862 = assay type: cell-based, Cryptococcus neoformans; conditions: RPMI1640, 37 °C, 48 h
Experimental: as §1, §2

Cn H99 = assay: microbe, parasite or virus in culture; assay type: cell-based, Cryptococcus neoformans; conditions: Cryptococcus neoformans, H99, 48 h, 37 °C, 48 h, read-out: MIC
Outline: (§3)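 MICs were determined by CLSI M27 broth microdilution in RPMI1640, using 2-fold serial dilutions and a 5000 cfu/mL yeast inoculum, with incubation for 2 days at 37 °C. Separate MIC tests were run in YPD enriched with CaCl2 or MgCl2.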

Cn cdc50Δ = assay: microbe, parasite or virus in culture; assay type: cell-based, Cryptococcus neoformans; conditions: 48 h, 37 °C, 48 h
Outline: as §3

[1] = in the presence of 2 μg/mL KKOO-NH2

For `CC[C@H](C)C[C@H](C)CCCCCCCCC(=O)N[C@H]1C[C@@H](O)[C@@H](NCCN)NC(=O)[C@@H]2[C@@H](O)CCN2C(=O)[C@H]([C@H](O)CCN)NC(=O)[C@H]([C@H](O)[C@@H](O)c2ccc(O)cc2)NC(=O)[C@@H]2C[C@@H](O)CN2C(=O)[C@H]([C@@H](C)O)NC1=O` [CAS, caspofungin], the MIC (C. auris B11245) is listed as 1 µg/mL (≈ 0.915 µM), the MIC (C. neoformans H99) is listed as 16 µg/mL (≈ 14.6 µM) and the “MIC of antifungal in combination with KKOO” value (Cg FKS1 S629P; +0 μg/mL KKOO (control)) is listed as 1 µg/mL. The “MIC of antifungal in combination with KKOO-NH2” value (“MIC … with KKOO-NH2” for short) (Cg FKS1 S629P; +0 μg/mL KKOO-NH2 (control)) was 1 µg/mL, the “MIC … with KKOO-NH2” value (Cg FKS1 S629P; +1 μg/mL KKOO-NH2) was 0.5 µg/mL and the “MIC of antifungal in combination with KKOO” value (Cg FKS1 S629P; +1 μg/mL KKOO) was 0.5 µg/mL. For the same compound, the “MIC … with KKOO-NH2” value (Cg FKS1 S629P; +2 μg/mL KKOO-NH2) was 0.062 µg/mL, the “MIC of antifungal in combination with KKOO” value (Cg FKS1 S629P; +2 μg/mL KKOO) was 0.125 µg/mL and the “MIC … with KKOO-NH2” value (Cg FKS1 S629P; +4 μg/mL KKOO-NH2) was 0.004 µg/mL. The “MIC of antifungal in combination with KKOO” value (Cg FKS1 S629P; +4 μg/mL KKOO) was 0.008 µg/mL, the “reduction of MIC of antifungal” value (Cg FKS1 S629P; [1]) was 16 fold and the “MIC of antifungal in combination with KKOO” value (Cg FKS2 S663P; +0 μg/mL KKOO (control)) was 4 µg/mL. The “MIC … with KKOO-NH2” value (Cg FKS2 S663P; +0 μg/mL KKOO-NH2 (control)) was 4 µg/mL, the “MIC … with KKOO-NH2” value (Cg FKS2 S663P; +1 μg/mL KKOO-NH2) was 2 µg/mL and the “MIC of antifungal in combination with KKOO” value (Cg FKS2 S663P; +1 μg/mL KKOO) was 2 µg/mL. The “MIC … with KKOO-NH2” value (Cg FKS2 S663P; +2 μg/mL KKOO-NH2) was 1 µg/mL, the “MIC of antifungal in combination with KKOO” value (Cg FKS2 S663P; +2 μg/mL KKOO) was 2 µg/mL and the “MIC … with KKOO-NH2” value (Cg FKS2 S663P; +4 μg/mL KKOO-NH2) was 1 µg/mL. For the same compound, the “MIC of antifungal in combination with KKOO” value (Cg FKS2 S663P; +4 μg/mL KKOO) was 1 µg/mL, the “reduction of MIC of antifungal” value (Cg FKS2 S663P; [1]) was 4 fold and the MIC (Cn apt1Δ; YPD + 0 mM Ca2+) was 8 µg/mL. The MIC (Cn apt1Δ; YPD + 2.5 mM Ca2+) was 16 µg/mL, the MIC (Cn apt1Δ; YPD + 5 mM Ca2+) was 32 µg/mL and the MIC (Cn apt1Δ; YPD + 10 mM Ca2+) was 32 µg/mL. The MIC (Cn apt1Δ; YPD + 20 mM Ca2+) was 64 µg/mL, the MIC (Cn crm1Δ; YPD + 0 mM Ca2+) was 8 µg/mL and the MIC (Cn crm1Δ; YPD + 2.5 mM Ca2+) was 32 µg/mL. It also gave an MIC (Cn crm1Δ; YPD + 5 mM Ca2+) of 32 µg/mL, an MIC (Cn crm1Δ; YPD + 10 mM Ca2+) of 64 µg/mL and an MIC (Cn crm1Δ; YPD + 20 mM Ca2+) of over 128 µg/mL. For the same compound, the MIC (Cn Crm1-oe; YPD + 0 mM Ca2+) was 8 µg/mL, the MIC (Cn Crm1-oe; YPD + 2.5 mM Ca2+) was 32 µg/mL and the MIC (Cn Crm1-oe; YPD + 5 mM Ca2+) was 32 µg/mL. The MIC (Cn Crm1-oe; YPD + 10 mM Ca2+) was 128 µg/mL, the MIC (Cn Crm1-oe; YPD + 20 mM Ca2+) was 128 µg/mL and the “MIC of antifungal in combination with KKOO” value (C. glabrata 2001; +0 μg/mL KKOO (control)) was 0.5 µg/mL. For the same compound, the “MIC … with KKOO-NH2” value (C. glabrata 2001; +0 μg/mL KKOO-NH2 (control)) was 0.5 µg/mL, the “MIC … with KKOO-NH2” value (C. glabrata 2001; +1 μg/mL KKOO-NH2) was 0.5 µg/mL and the “MIC of antifungal in combination with KKOO” value (C. glabrata 2001; +1 μg/mL KKOO) was 0.5 µg/mL. For the same compound, the “MIC … with KKOO-NH2” value (C. glabrata 2001; +2 μg/mL KKOO-NH2) was 0.125 µg/mL, the “MIC of antifungal in combination with KKOO” value (C. glabrata 2001; +2 μg/mL KKOO) was 0.25 µg/mL and the “MIC … with KKOO-NH2” value (C. glabrata 2001; +4 μg/mL KKOO-NH2) was 0.004 µg/mL. The “MIC of antifungal in combination with KKOO” value (C. glabrata 2001; +4 μg/mL KKOO) was 0.016 µg/mL, the “MIC of antifungal in combination with KKOO” value (C. glabrata 2001; +8 μg/mL KKOO) was 0.556 µg/mL and the “reduction of MIC of antifungal” value (C. glabrata 2001; [1]) was 4 fold. The “MIC of antifungal in combination with KKOO” value (Cn MRL862; +0 μg/mL KKOO (control)) was 16 µg/mL, the “MIC … with KKOO-NH2” value (Cn MRL862; +0 μg/mL KKOO-NH2 (control)) was 16 µg/mL and the “MIC … with KKOO-NH2” value (Cn MRL862; +1 μg/mL KKOO-NH2) was 16 µg/mL. For the same compound, the “MIC of antifungal in combination with KKOO” value (Cn MRL862; +1 μg/mL KKOO) was 16 µg/mL, the “MIC … with KKOO-NH2” value (Cn MRL862; +2 μg/mL KKOO-NH2) was 8 µg/mL and the “MIC of antifungal in combination with KKOO” value (Cn MRL862; +2 μg/mL KKOO) was 16 µg/mL. The “MIC … with KKOO-NH2” value (Cn MRL862; +4 μg/mL KKOO-NH2) was 4 µg/mL, the “MIC of antifungal in combination with KKOO” value (Cn MRL862; +4 μg/mL KKOO) was 8 µg/mL and the MIC (Cn H99; YPD + 0 mM Ca2+) was 8 µg/mL. It also gave an MIC (Cn H99; YPD + 0 mM Mg2+) of 8 µg/mL, an MIC (Cn H99; YPD + 2.5 mM Ca2+) of 16 µg/mL and an MIC (Cn H99; YPD + 2.5 mM Mg2+) of 16 µg/mL. For the same compound, the MIC (Cn H99; YPD + 5 mM Ca2+) was 32 µg/mL, the MIC (Cn H99; YPD + 5 mM Mg2+) was 16 µg/mL and the MIC (Cn H99; YPD + 10 mM Ca2+) was 64 µg/mL. For the same compound, the MIC (Cn H99; YPD + 10 mM Mg2+) was 32 µg/mL, the MIC (Cn H99; YPD + 20 mM Mg2+) was 64 µg/mL and the MIC (Cn cdc50Δ; Cryptococcus neoformans, YPD + 0 mM Ca2+) was 4 µg/mL. For the same compound, the MIC (Cn cdc50Δ; Cryptococcus neoformans, YPD + 2.5 mM Ca2+) was 8 µg/mL, the MIC (Cn cdc50Δ; Cryptococcus neoformans, YPD + 5 mM Ca2+) was 16 µg/mL and the MIC (Cn cdc50Δ; Cryptococcus neoformans, YPD + 10 mM Ca2+) was 32 µg/mL. It also gave an MIC (Cn cdc50Δ; Cryptococcus neoformans, YPD + 20 mM Ca2+) of 8 µg/mL, an MIC (Cn cdc50Δ; YPD + 0 mM Mg2+, unit inferred) of 4 µg/mL and an MIC (Cn cdc50Δ; YPD + 2.5 mM Mg2+, unit inferred) of 8 µg/mL. For the same compound, the MIC (Cn cdc50Δ; YPD + 5 mM Mg2+, unit inferred) was 8 µg/mL, the MIC (Cn cdc50Δ; YPD + 10 mM Mg2+, unit inferred) was 8 µg/mL and the MIC (Cn cdc50Δ; YPD + 20 mM Mg2+, unit inferred) was 8 µg/mL.
